Experimental data taken from ChEMBL document CHEMBL4330075, “Discovery of Novel Quinoline-Chalcone Derivatives as Potent Antitumor Agents with Microtubule Polymerization Inhibitory Activity” (J Med Chem, 2019).
pIC50: −log10 of the molar value. Converted amounts (≈) assume the structure as drawn.

What was measured:
K562 [1] = experiment: Cell cycle arrest in human K562 cells assessed as accumulation of cells at G2 phase at 20 nM after 48 hrs by propidium iodide staining-based flow cytometric analysis (reference value: 15.82%); format: functional
K562 [2] = experiment: Cell cycle arrest in human K562 cells assessed as accumulation of cells at G2 phase at 10 nM after 48 hrs by propidium iodide staining-based flow cytometric analysis (reference value: 15.82%); format: functional
K562 [3] = experiment: Cell cycle arrest in human K562 cells assessed as accumulation of cells at G1 phase at 20 nM after 48 hrs by propidium iodide staining-based flow cytometric analysis (reference value: 47.91%); format: functional
K562 [4] = experiment: Cell cycle arrest in human K562 cells assessed as accumulation of cells at S phase at 10 nM after 48 hrs by propidium iodide staining-based flow cytometric analysis (reference value: 36.27%); format: functional
K562 [5] = experiment: Cell cycle arrest in human K562 cells assessed as accumulation of cells at G1 phase at 10 nM after 48 hrs by propidium iodide staining-based flow cytometric analysis (reference value: 47.91%); format: functional
K562 [6] = experiment: Antiproliferative activity against human K562 cells after 72 hrs by MTT assay; format: functional, cell-based; conditions: K562, 72 h
MDA-MB-231 = experiment: Antiproliferative activity against human MDA-MB-231 cells after 72 hrs by MTT assay; format: functional, cell-based; conditions: MDA-MB-231, 72 h
[7] = Selectivity index, ratio of IC50 for human LO2 cells to IC50 for human HepG2 cells; format: toxicity; conditions: LO2 cells and HepG2 cells, read-out: Ratio IC50
Tubulin = Tubulin (Sus scrofa, UniProt P02554+P02550); experiment: Inhibition of porcine brain tubulin polymerization measured every 2 mins for 60 mins by spectrophotometric analysis
K562 [8] = experiment: Cell cycle arrest in human K562 cells assessed as accumulation of cells at G1 phase at 5 nM after 48 hrs by propidium iodide staining-based flow cytometric analysis (reference value: 47.91%); format: functional
K562 [9] = experiment: Cell cycle arrest in human K562 cells assessed as accumulation of cells at G2 phase at 5 nM after 48 hrs by propidium iodide staining-based flow cytometric analysis (reference value: 15.82%); format: functional
K562 [10] = experiment: Induction of apoptosis in human K562 assessed as early apoptotic cells at 5 nM after 48 hrs by Annexin V-APC/propidium iodide staining-based flow cytometric analysis (reference value: 4.44%); format: functional
K562 [11] = experiment: Induction of apoptosis in human K562 assessed as late apoptotic cells at 5 nM after 48 hrs by Annexin V-APC/propidium iodide staining-based flow cytometric analysis (reference value: 1.30%); format: functional
K562 [12] = experiment: Induction of apoptosis in human K562 assessed as necrotic cells at 5 nM after 48 hrs by Annexin V-APC/propidium iodide staining-based flow cytometric analysis (reference value: 1.92%); format: functional
K562 [13] = experiment: Induction of apoptosis in human K562 assessed as early apoptotic cells at 10 nM after 48 hrs by Annexin V-APC/propidium iodide staining-based flow cytometric analysis (reference value: 4.44%); format: functional
K562 [14] = experiment: Induction of apoptosis in human K562 assessed as late apoptotic cells at 10 nM after 48 hrs by Annexin V-APC/propidium iodide staining-based flow cytometric analysis (reference value: 1.30%); format: functional
K562 [15] = experiment: Induction of apoptosis in human K562 assessed as necrotic cells at 10 nM after 48 hrs by Annexin V-APC/propidium iodide staining-based flow cytometric analysis (reference value: 1.92%); format: functional
K562 [16] = experiment: Induction of apoptosis in human K562 assessed as viable cells at 20 nM after 48 hrs by Annexin V-APC/propidium iodide staining-based flow cytometric analysis (reference value: 92.34%); format: functional; conditions: K562, 48 h, read-out: Activity
K562 [17] = experiment: Induction of apoptosis in human K562 assessed as early apoptotic cells at 20 nM after 48 hrs by Annexin V-APC/propidium iodide staining-based flow cytometric analysis (reference value: 4.44%); format: functional
K562 [18] = experiment: Induction of apoptosis in human K562 assessed as late apoptotic cells at 20 nM after 48 hrs by Annexin V-APC/propidium iodide staining-based flow cytometric analysis (reference value: 1.30%); format: functional
K562 [19] = experiment: Induction of apoptosis in human K562 assessed as necrotic cells at 20 nM after 48 hrs by Annexin V-APC/propidium iodide staining-based flow cytometric analysis (reference value: 1.92%); format: functional
K562 [20] = experiment: Induction of mitochondrial membrane potential disruption in human K562 cells assessed as intact mitochondrial membrane potential at 5 nM after 48 hrs by JC-1 staining-based flow cytometric analysis (reference value: 99.12%); format: functional
K562 [21] = experiment: Induction of mitochondrial membrane potential disruption in human K562 cells assessed as collapsed mitochondrial membrane potential at 5 nM after 48 hrs by JC-1 staining-based flow cytometric analysis (reference value: 0.63%); format: functional
K562 [22] = experiment: Induction of mitochondrial membrane potential disruption in human K562 cells assessed as intact mitochondrial membrane potential at 20 nM after 48 hrs by JC-1 staining-based flow cytometric analysis (reference value: 99.12%); format: functional
K562 [23] = experiment: Induction of mitochondrial membrane potential disruption in human K562 cells assessed as collapsed mitochondrial membrane potential at 20 nM after 48 hrs by JC-1 staining-based flow cytometric analysis (reference value: 0.63%); format: functional
HUVEC = experiment: Antiproliferative activity against human HUVEC cells after 24 hrs by MTT assay; format: cell-based
[24] = Aqueous solubility in pH 7.4 phosphate buffer by HPLC analysis; format: physicochemical
[25] = Toxicity in ICR mouse assessed as mouse survival at 409.6 mg/kg, iv for 14 days relative to control; format: organism-based; conditions: in vivo
[26] = Toxicity in ICR mouse assessed as mouse survival at 512 mg/kg, iv for 14 days relative to control; format: organism-based; conditions: in vivo
[27] = Toxicity in ICR mouse assessed as mouse survival at 640 mg/kg, iv for 14 days relative to control; format: organism-based; conditions: in vivo
[28] = Toxicity in ICR mouse assessed as mouse survival at 800 mg/kg, iv for 14 days relative to control; format: organism-based; conditions: in vivo
[29] = Toxicity in ICR mouse assessed as mouse survival at 1000 mg/kg, iv for 14 days relative to control; format: organism-based; conditions: in vivo
[30] = Toxicity in ICR mouse xenografted with […] cells assessed as decrease in body weight at 10 to 20 mg/kg, iv qd administered for 21 days and measured every 2 days; format: organism-based; conditions: in vivo
[31] = Cardiotoxicity in ICR mouse xenografted with […] cells at 10 to 20 mg/kg, iv qd for 21 consecutive days by H and E staining-based assay; format: toxicity, organism-based; conditions: in vivo
[32] = Hepatotoxicity in ICR mouse xenografted with […] cells at 10 to 20 mg/kg, iv qd for 21 consecutive days by H and E staining-based assay; format: toxicity, organism-based; conditions: in vivo
[33] = Toxicity in ICR mouse xenografted with […] cells assessed as effect on lung at 10 to 20 mg/kg, iv qd for 21 consecutive days by H and E staining-based assay; format: organism-based; conditions: in vivo
[34] = Renal toxicity in ICR mouse xenografted with […] cells at 10 to 20 mg/kg, iv qd for 21 consecutive days by H and E staining-based assay; format: organism-based; conditions: in vivo
HepG2 = experiment: cells; conditions: Homo sapiens, HepG2, 72 h

COc1ccc(/C=C(\C)C(=O)c2cc(C)nc3ccccc23)cc1O
Activity (K562 [1]): 26.98%
Activity (K562 [2]): 22.85%
Activity (K562 [3]): 42.68%
Activity (K562 [4]): 24.94%
Activity (K562 [5]): 52.22%
pIC50 (K562 [6]): 8.05
pIC50 (MDA-MB-231): 7.82
selectivity ratio [7]: 65.8
IC50 (Tubulin): 1.71 µM
Activity (K562 [8]): 50.41%
Activity (K562 [9]): 18.04%
Activity (K562 [10]): 12.87%
Activity (K562 [11]): 4.34%
Activity (K562 [12]): 2.63%
Activity (K562 [13]): 23.15%
Activity (K562 [14]): 11.4%
Activity (K562 [15]): 2.77%
viability at 0.02 µM (K562 [16]): 35%
Activity (K562 [17]): 36.86%
Activity (K562 [18]): 23.28%
Activity (K562 [19]): 4.86%
Activity (K562 [20]): 84.97%
Activity (K562 [21]): 15.02%
Activity (K562 [22]): 46.39%
Activity (K562 [23]): 53.39%
pIC50 (HUVEC): 6.60
solubility [24]: 16 µg/mL (≈ 48 µM)
survival at 336 h [25]: 90%
survival at 336 h [26]: 80%
survival at 336 h [27]: 60%
survival at 336 h [28]: 30%
survival at 336 h [29]: 10%
Activity [30]: Non-Toxic
Activity [31]: Non-Toxic
Activity [32]: Non-Toxic
Activity [33]: Non-Toxic
Activity [34]: Non-Toxic
pIC50 (HepG2): 7.82
